Laboratory results taken from publication PMC11395612, “DPP-IV Inhibitory Peptide against In Vitro Gastrointestinal Digestion Derived from Goat’s Milk Protein and Its Activity Enhancement via Amino Acid Substitution” (Foods, 2024).
pIC50: −log10 of the molar value. Entries after “also recorded” stand apart in the source; their conditions may differ. Read-outs that look alike come from different tables or passages of the source.

Experiments:
DPP-IV [1] = biological target: T1, DPP-IV (Homo sapiens, UniProt P27487); format: cell-based
T1 construct: host or cells: Caco-2 cells
T1 sequence (P27487 whole entry): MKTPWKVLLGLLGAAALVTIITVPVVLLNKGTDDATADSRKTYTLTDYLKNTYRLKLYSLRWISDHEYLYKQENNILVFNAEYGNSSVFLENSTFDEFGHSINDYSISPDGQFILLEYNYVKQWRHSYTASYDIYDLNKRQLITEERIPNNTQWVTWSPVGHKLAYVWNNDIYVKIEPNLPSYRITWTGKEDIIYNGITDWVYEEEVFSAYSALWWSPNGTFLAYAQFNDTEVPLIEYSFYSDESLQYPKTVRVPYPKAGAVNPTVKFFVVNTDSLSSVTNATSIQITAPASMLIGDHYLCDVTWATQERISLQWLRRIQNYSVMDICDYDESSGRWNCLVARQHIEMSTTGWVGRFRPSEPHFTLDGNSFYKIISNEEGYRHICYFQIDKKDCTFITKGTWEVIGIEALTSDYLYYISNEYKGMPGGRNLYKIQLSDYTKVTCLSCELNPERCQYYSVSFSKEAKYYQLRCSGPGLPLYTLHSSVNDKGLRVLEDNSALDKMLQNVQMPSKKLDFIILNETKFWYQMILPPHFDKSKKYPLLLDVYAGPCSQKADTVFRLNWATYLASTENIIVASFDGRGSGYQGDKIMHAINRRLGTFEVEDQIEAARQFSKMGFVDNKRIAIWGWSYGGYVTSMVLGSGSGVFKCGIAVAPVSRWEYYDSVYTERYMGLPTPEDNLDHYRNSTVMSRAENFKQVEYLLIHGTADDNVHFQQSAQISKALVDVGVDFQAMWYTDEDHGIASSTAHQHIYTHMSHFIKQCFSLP

Caco-2 cells = conditions: 4 h
DPP-IV [2] = conditions: MBPDB database assignment, cited from earlier work
Text: Among them, the DPP-IV inhibitory peptide fragment derived from milk serum albumin may be rapidly degraded in vivo due to low structural stability, leading to loss of activity.

[3] = In vitro simulated gastrointestinal digestion of goat milk; format: in vitro ADME; conditions: in vitro gastric (pepsin, pH 2.0, 60 min) then intestinal digestion (pH 7.0), 30 min, LC-MS/MS
Description: Goat milk was subjected to simulated gastrointestinal digestion according to the in vitro digestion protocol described by Xue et al.. Artificial gastric fluid from goat milk was mixed in a 1:1 ratio, followed by the addition of 120 μL CaCl2(H2O)2. The pH of the resulting solution was adjusted to 2.0 using HCl. The solution was then divided into centrifuge tubes, with each tube containing 20 mL of the solution. The tubes were placed in a water bath (FYDKH3, Shanghai Hengyi Scientific Instrument Co., Shanghai, China) and subjected to shock for five min for pre-heating. Subsequently, pepsin was added and dissolved in simulated gastric fluid (SGF). After preheating, 1 mL enzyme solution was added to each tube to initiate the in vitro digestion process. Digestion time intervals were established at 0, 10, 30, 60, 90, and 120 min. Additionally, the pH of the digestion solution was adjusted to 8.0, using NaOH solution to deactivate the enzyme following digestion. After gastric digestion for 60 min followed by enzyme inactivation, an artificial intestinal solution was added at a ratio of 1:1. The subsequent experimental procedures were identical to those previously described. The pH of the solution was adjusted to 7.0. Digestion time intervals were set at 0, 0.5, 5, 10, 30, and 60 min. […]
LC-MS/MS was determined as described by Sun et al.. […]

DPP-IV [4] = conditions: ref [32], cited from earlier work
Text: In the process of in vitro digestion, potential active peptide fragments harboring in food proteins may be degraded by digestive enzymes, but the peptide fragment selected in this study still has DPP-IV inhibitory activity after digestion, which is a digestion-resistant peptide fragment with a molecular weight of about 1kDa. Some reported that DPP-IV inhibitory peptides tend to be active peptides with 2–8 amino acid residues and a molecular weight of less than 1 kDa. The DPP-IV inhibition and metabolic stability of casein-derived peptide Val-Pro-Tyr-Pro-Gln (VPYPQ) and its fragments, an ...

[5] = ref [23] in Table 1 for VGINYWLAHK and ILDKVGINYWLAHK

Substance	DPP-IV inhibition rate (DPP-IV [1]) [%]	DPP-IV inhibitory effect, in words (DPP-IV [1])	cellular activity (cell viability) (Caco-2 cells; 0.5 mg/mL) [%]	cellular activity (cell viability) (Caco-2 cells; 1 mg/mL) [%]	DPP-IV inhibitory activity, in words (DPP-IV [2]; [5])	also measured
H-IIDKVGINY-OH [II]	79.20 ± 2.20	significant enhancement of DPP-IV inhibitory activity; also recorded: strongest; also recorded: increased the hydrophobic force and inhibitory activity	90.34 ± 2.08	85.51 ± 3.52		
ILDKVGINYWLAHK					displayed DPP-IV inhibitory activity	
H-ILDKVGINY-OH [IL]	73.44 ± 2.23		91.91 ± 5.763	86 ± 3.911		DPP-IV inhibitory activity, in words (DPP-IV [2]; ref [23] in Table 1 for […] and […]): displayed DPP-IV inhibitory activity; resistance to digestion / activity after digestion, in words [3]: high in content and resistance to digestion; resistance to digestion / activity after digestion, in words ([3]; listed as ILDKVGINY): retaining its activity following digestion
VGINYWLAHK					displayed DPP-IV inhibitory activity	
H-IPDKVGINY-OH [IP]	60.37 ± 3.04	weakest; also recorded: lower inhibition rate	91.88 ± 5.385	84.46 ± 2.928		
Val-Pro-Tyr-Pro-Gln [VPYPQ, casein-derived peptide]						DPP-IV inhibitory activity, in words (DPP-IV [4]; among VPYPQ and its fragments): strongest DPP-IV inhibitory peptide; pIC50 (DPP-IV [4]; casein-derived peptide, read-out: IC50 of DPP-IV inhibition): 4.38
